Several values for one entry are separate records, joined by “and”; a condition that tells them apart may be missing. Equal values may be shown once. Read-outs that look alike come from different tables or passages of the source.
Biological target: T1, MRGPRX4 + RAMP2 (Homo sapiens, UniProt Q96LA9)
T1 construct: expressed in transfected cells; host or cells: HEK293T
Assay: IP1 accumulation, MRGPRX4 coexpressed with RAMP2
Type: cell-based
Parameters: key to response to agonist, X4:ramp2.I:2: % IP1: mock-transfected unstimulated = 0%, fully stimulated MRGPRX4 = 100%; key to IP1 Basal / response to agonist, X4:ramp2.I:0.25 / response to agonist, X4:ramp2.I:0.5 / response to agonist, X4:ramp2.I:1: % IP1; unstimulated mock = 0%, fully stimulated MRGPRX4 = 100%
Conditions: for Emax: read-out: IP1 Emax; for IP1 accumulation (normalized): MRGPRX4+RAMP2 1pg 1:1, Supplementary Figure 5e, 5g
Experimental: HEK293T cells were transfected with 1 pg/cell of MRGPRX4 DNA, and the amount of DNA was kept constant at 2 pg/cell with pcDNA3.1(+) empty vector, unless otherwise specified. Twenty four hours after transfection, IP1 assay was performed as previously described ([51]). When applicable, cells were treated with 1 μM YM254890 (YM) or different concentrations of U73122 for 1 h prior to addition of agonist or buffer. After incubation for 2 h, HTRF reagents and IP1 calibration standards were added and incubated for 2 h in the dark at room temperature. Time-resolved fluorescence signals were read on the BioTek Synergy NEO-TRF Hybrid multi-mode reader (BioTek Instruments). All data were carried out in three independent experiments with three technical replicate each.
For RAMP DNA titration assay, HEK293T cells were cotransfected with a constant amount of 1 pg/cell of FLAG-MRGPRX4-GFP10-1D4 to which a serial dilution of 1, 0.75, 0.5, 0.25, or 0 pg/cell of each HA-RAMP-OLLAS was added. For a homogenous transfection of MRGPRX4, a master mix of MRGPRX4 DNA was made prior to addition of the RAMP DNA. […]
Data reduction, standard calibration, and transformation of HTRF data were performed as previously described ([51]). Normalized IP1 values were calculated relative to the unstimulated mock-transfected cells (set to 0%) and fully stimulated MRGPRX4 (alone if applicable) (set to 100%).

[1] = MRGPRX4 + RAMP2 0.25 pg (Fig. S3), normalized per agonist
[2] = MRGPRX4 + RAMP2 0.5 pg (Fig. S3), normalized per agonist
[3] = MRGPRX4 + RAMP2 1 pg (Fig. S3), normalized per agonist
[4] = MRGPRX4 + RAMP2 2 pg (Fig. S3), normalized per agonist
[5] = Tet-On MRGPRX4:RAMP2 Ratio 1:0.5 (Fig. S5E)
[6] = Tet-On MRGPRX4:RAMP2 Ratio 1:0.75 (Fig. S5E)
[7] = Tet-On MRGPRX4:RAMP2 Ratio 1:1 (Fig. S5E)

T1 sequence (Q96LA9 whole entry): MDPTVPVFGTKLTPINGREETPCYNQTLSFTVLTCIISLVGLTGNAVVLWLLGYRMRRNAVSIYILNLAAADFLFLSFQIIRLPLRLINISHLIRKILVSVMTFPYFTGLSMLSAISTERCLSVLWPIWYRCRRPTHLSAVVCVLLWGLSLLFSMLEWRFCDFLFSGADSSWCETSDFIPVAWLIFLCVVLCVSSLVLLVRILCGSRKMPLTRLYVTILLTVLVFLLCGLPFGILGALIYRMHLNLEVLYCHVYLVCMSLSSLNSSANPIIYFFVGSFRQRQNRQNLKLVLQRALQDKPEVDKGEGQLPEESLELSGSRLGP

CC(C)[C@H]1CC[C@H](C(=O)N[C@H](Cc2ccccc2)C(=O)O)CC1 [Nateglinide]
EC50 (Figure 4a top, DNA ratio MRGPRX4:RAMP2 1:0.25, individual replicates, read-out: potency (converted)): 9.57 µM and 9.23 µM (2×) | EC50 (Figure 4a top, DNA ratio MRGPRX4:RAMP2 1:0.5, individual replicates, read-out: potency (converted)): 15.1 µM and 11.3 µM and 13.1 µM | EC50 (Figure 4a top, DNA ratio MRGPRX4:RAMP2 1:0.75, individual replicates, read-out: potency (converted)): 15.4 µM and 13.9 µM and 10.4 µM | EC50 (Figure 4a top, DNA ratio MRGPRX4:RAMP2 1:1, individual replicates, read-out: potency (converted)): 39.9 µM and 19.4 µM and 24.3 µM | response to agonist, X4:ramp2.I:0.25 (Figure 4c-f, agonist 100µM, X4:ramp2 1:0.25, MRGPRX4 = 100): 71.8475 and 74.3589 | response to agonist, X4:ramp2.I:0.5 (Figure 4c-f, agonist 100µM, X4:ramp2 1:0.5, MRGPRX4 = 100): 61.7207 and 60.1764 | response to agonist, X4:ramp2.I:1 (Figure 4c-f, agonist 100µM, X4:ramp2 1:1, MRGPRX4 = 100): 42.7283 and 40.01 | response to agonist, X4:ramp2.I:2 (Figure 4c-f, agonist 100µM, X4:ramp2 1:2, MRGPRX4 = 100): 16.754 and 20.2407 | IP1 Basal [1]: 16.83 | IP1 span (Emax minus basal) [1]: 84.5% | EC50 (MRGPRX4 + RAMP2 0.25 pg (Fig. S3), normalized per agonist, read-out: IP1 EC50): 11.8 µM | Emax [1]: 101% | IP1 Basal [2]: 13.85 | IP1 span (Emax minus basal) [2]: 55.7% | Emax [2]: 69.5% | EC50 (MRGPRX4 + RAMP2 0.5 pg (Fig. S3), normalized per agonist, read-out: IP1 logEC50 (converted)): 6.68 µM | IP1 Basal [3]: 8.724 | IP1 span (Emax minus basal) [3]: 37.8% | Emax [3]: 46.5% | EC50 (MRGPRX4 + RAMP2 1 pg (Fig. S3), normalized per agonist, read-out: IP1 logEC50 (converted)): 9.29 µM | IP1 Basal [4]: 3.623 | IP1 span (Emax minus basal) [4]: 25.2% | EC50 (MRGPRX4 + RAMP2 2 pg (Fig. S3), normalized per agonist, read-out: IP1 EC50): 26.6 µM | Emax [4]: 28.8% | IP1 Basal [5]: 7.610 | IP1 span (Emax minus basal) [5]: 68% | EC50 (Tet-On MRGPRX4:RAMP2 Ratio 1:0.5 (Fig. S5E), read-out: IP1 EC50): 8.76 µM | Emax [5]: 75.6% | IP1 Basal [6]: 4.862 | IP1 span (Emax minus basal) [6]: 63.1% | EC50 (Tet-On MRGPRX4:RAMP2 Ratio 1:0.75 (Fig. S5E), read-out: IP1 EC50): 10.5 µM | Emax [6]: 67.9% | EC50 (Tet-On MRGPRX4:RAMP2 Ratio 1:0.75 (Fig. S5E), read-out: IP1 logEC50 (converted)): 10.5 µM | IP1 Basal [7]: 3.554 | IP1 span (Emax minus basal) [7]: 52.2% | EC50 (Tet-On MRGPRX4:RAMP2 Ratio 1:1 (Fig. S5E), read-out: IP1 EC50): 16.7 µM | Emax [7]: 55.7% | IP1 accumulation (normalized) (log [nateglinide] (M) -4): 49.0479 and 42.2633 and 46.2108 | IP1 accumulation (normalized) (log [nateglinide] (M) -4.69897): 35.8073 and 28.8485 and 29.8595 | IP1 accumulation (normalized) (log [nateglinide] (M) -5.39794): 15.3369 and 12.9717 and 15.4367 | IP1 accumulation (normalized) (log [nateglinide] (M) -6.09691): 5.582 and 4.886 and 4.986 | IP1 accumulation (normalized) (log [nateglinide] (M) -6.79588): 3.625 and 3.074 and 3.358

— publication PMC10165273, “Itch receptor MRGPRX4 interacts with the receptor activity–modifying proteins” (The Journal of Biological Chemistry, 2023)
